Molecules are shown by their SMILES.

For this test, the target named is HPK1 (Homo sapiens (Human), UniProt Q92918). The test can be described thus: HPK1 Inhibition Assay (ADP-Glo kinase assay). The settings on record: ATP 10 μM. Format: biochemical. How it is done: A stock solution of 10 mM test compound was prepared in DMSO. The compound was prepared by 5-fold and 10-point serial dilutions with HPK1 kinase assay buffer. The HPK1 kinase assay buffer contained 40 mM Tris, pH 7.5; 20 mM MgCl2, 0.1 mg/ml BSA, and 50 μM DTT. 7.5 ng/μl of Active HPK1 (Promega, V4098) and 0.1 μg/ml MBP substrate protein were added to the reaction system. The final concentration of ATP in the HPK1 kinase reaction system was 10 μM. Serial diluted compounds were transferred to the reaction system and incubated at room temperature for 1 hr. 5 μL of ADP-Glo™ Reagent (Promega, V9101) was added and incubated for 40 min to stop the kinase reaction and deplete the unconsumed ATP. […] The luminescence was measured with a plate-reading luminometer.
HPK1, sequence (Q92918 1-346 limits assumed): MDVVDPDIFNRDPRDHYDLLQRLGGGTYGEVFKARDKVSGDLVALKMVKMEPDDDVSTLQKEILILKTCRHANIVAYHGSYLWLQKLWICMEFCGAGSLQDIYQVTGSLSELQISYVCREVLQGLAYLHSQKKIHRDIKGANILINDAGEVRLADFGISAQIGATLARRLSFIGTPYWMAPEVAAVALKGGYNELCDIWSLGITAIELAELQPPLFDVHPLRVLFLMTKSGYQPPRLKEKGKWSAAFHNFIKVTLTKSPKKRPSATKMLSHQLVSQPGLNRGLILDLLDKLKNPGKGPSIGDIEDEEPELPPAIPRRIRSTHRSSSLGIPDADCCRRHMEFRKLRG
(In ADP-Glo the light output rises with the ADP produced.)
`Cn1c(C(C)(C)C)nc2c(N3CC[C@@](C)(N)C3)c(NC(=O)c3ccc(=O)n(-c4c(F)cccc4F)n3)ccc21` (single isomer, unassigned) [Example 100, ®-N-(4-(3-amino-3-methylpyrrolidin-1-yl)-2-(tert-butyl)-1-methyl-1H-benzo 111 midazolezol-5-yl)-1-(2,6-difluorophenyl)-6-oxo-1,6-dihydropyridazine-3-carboxamide] came in with an IC50 below 100 nM. The compound `Cn1c(C(C)(C)C)nc2c(N3CC[C@@](C)(N)C3)c(NC(=O)c3ccc(=O)n(-c4c(F)cccc4F)n3)ccc21` (single isomer, unassigned) [Example 101] registered an IC50 below 100 nM.

In turn, `CC(C)c1nc2c(N3CC[C@](N)(CO)C3)c(NC(=O)c3ccc(=O)n(-c4c(F)cccc4F)n3)ccc2n1C` (single isomer, unassigned) [Example 124] came in with an IC50 below 100 nM. The figure for `CC(C)c1nc2c(N3CC[C@](N)(CO)C3)c(NC(=O)c3ccc(=O)n(-c4c(F)cccc4F)n3)ccc2n1C` (single isomer, unassigned) [Example 125] is below 100 nM. The same measure for `CC(C)c1nc2c(N3CC[C@](N)(C(F)(F)F)C3)c(NC(=O)c3ccc(=O)n(-c4c(F)cccc4F)n3)ccc2n1C` (single isomer, unassigned) [Example 138]: below 100 nM; for `CC(C)c1nc2c(N3CC[C@](N)(C(F)(F)F)C3)c(NC(=O)c3ccc(=O)n(-c4c(F)cccc4F)n3)ccc2n1C` (single isomer, unassigned) [Example 139]: below 100 nM; for `CC[C@@H]1CN(c2c(NC(=O)c3ccc(=O)n(-c4c(F)cccc4F)n3)ccc3c2cnn3C(C)C)C[C@@H]1N` (single isomer, unassigned) [Example 196]: below 100 nM. As for `CC[C@@H]1CN(c2c(NC(=O)c3ccc(=O)n(-c4c(F)cccc4F)n3)ccc3c2cnn3C(C)C)C[C@@H]1N` (single isomer, unassigned) [Example 197], the IC50 is below 100 nM. The same measure for `N[C@H]1CN(c2c(NC(=O)c3ccc(=O)n(-c4c(F)cccc4F)n3)ccc3nn(C4(C(F)(F)F)CC4)cc23)CC12CC2` (single isomer, unassigned) [Example 313]: below 100 nM. Compound `CC1(C)CN(c2c(NC(=O)c3ccc(=O)n(-c4c(F)cccc4F)n3)ccc3nn(C4(C(F)(F)F)CC4)cc23)C[C@@H]1N` (single isomer, unassigned) [Example 314] returned an IC50 below 100 nM.

`C[C@]1(O)CCN(c2cc(-c3cnccc3C#N)ccc2NC(=O)c2ccc(=O)n(-c3c(F)cccc3F)n2)C1` (single isomer, unassigned) [Example 353] had an IC50 below 100 nM.

Regarding `C[C@]1(O)CCN(c2cc(-c3cnccc3C#N)ccc2NC(=O)c2ccc(=O)n(-c3c(F)cccc3F)n2)C1` (single isomer, unassigned) [Example 354], the IC50 is below 100 nM. For the compound `N#Cc1ccncc1-c1ccc(NC(=O)c2ccc(=O)n(-c3c(F)cccc3F)n2)c(N2CC[C@@](N)(CO)C2)c1` (single isomer, unassigned) [Example 355], the IC50 is below 100 nM. The figure for `N#Cc1ccncc1-c1ccc(NC(=O)c2ccc(=O)n(-c3c(F)cccc3F)n2)c(N2CC[C@@](N)(CO)C2)c1` (single isomer, unassigned) [Example 356] is below 100 nM; for `N#Cc1ccncc1-c1ccc(NC(=O)c2ccc(=O)n(-c3c(F)cccc3F)n2)c(N2CC[C@](N)(C(F)(F)F)C2)c1` (single isomer, unassigned) [Example 358] it is below 100 nM. `N#Cc1ccncc1-c1ccc(NC(=O)c2ccc(=O)n(-c3c(F)cccc3F)n2)c(N2CC[C@](N)(C(F)(F)F)C2)c1` (single isomer, unassigned) [Example 359] had an IC50 below 100 nM. The figure for `COc1cccc(F)c1-c1nccc(C(=O)Nc2ccc3c(nc(C(F)F)n3C)c2N2CCC(N)C2)c1F` (stereo in doubt) [Example 164, N-(4-((S)-3-aminopyrrolidin-1-yl)-2-(difluoromethyl)-1-methyl-1H-benzo[d]imidazol-5-yl)-3-fluoro-2-(2-fluoro-6-methoxyphenyl)isonicotinamide] is below 100 nM; for `CO[C@@H]1CN(c2c(NC(=O)c3ccc(=O)n(-c4c(F)cccc4F)n3)ccc3c2cnn3C(C)C)C[C@H]1N` (stereo in doubt) [Example 200, N-(4-((3R,4R)-3-amino-4-methoxypyrrolidin-1-yl)-1-isopropyl-1H-indazol-5-yl)-1-(2,6-difluorophenyl)-6-oxo-1,6-dihydropyridazine-3-carboxamide] it is below 100 nM; for `COc1cccc(F)c1-c1nccc(C(=O)Nc2cc(F)ccc2N2C[C@@H]3C[C@H]2CN3)c1F` [Example 1, N-(2-((1S,4S)-2,5-diazabicyclo[2.2.1]heptan-2-yl)-5-fluorophenyl)-3-fluoro-2-(2-fluoro-6-methoxyphenyl)isonicotinamide] it is 100 to 1000 nM. Consider `COc1cccc(F)c1-c1nccc(C(=O)Nc2cc(F)ccc2N2C[C@H]3C[C@@H]2CN3)c1F` [Example 2, N-(2-((1R,4R)-2,5-diazabicyclo[2.2.1]heptan-2-yl)-5-fluorophenyl)-3-fluoro-2-(2-fluoro-6-methoxyphenyl)isonicotinamide], for which the IC50 was below 100 nM. Turning to `COc1cccc(F)c1-c1cccc(C(=O)Nc2cc(F)ccc2N2C[C@H]3C[C@@H]2CN3)c1F` [Example 3, N-(2-((1R,4R)-2,5-diazabicyclo[2.2.1]heptan-2-yl)-5-fluorophenyl)-2,2′-difluoro-6′-methoxy-[1,1′-biphenyl]-3-carboxamide], the IC50 fell in the range of 100 to 1000 nM.

In turn, `COc1ccc(Cl)c(F)c1-c1nccc(C(=O)Nc2cc(F)ccc2N2C[C@H]3C[C@@H]2CN3)c1F` [Example 4, N-(2-((1R,4R)-2,5-diazabicyclo[2.2.1]heptan-2-yl)-5-fluorophenyl)-2-(3-chloro-2-fluoro-6-methoxyphenyl)-3-fluoroisonicotinamide] yielded an IC50 of 100 to 1000 nM. The figure for `COc1ccc(F)c(F)c1-c1nccc(C(=O)Nc2cc(F)ccc2N2C[C@H]3C[C@@H]2CN3)c1F` [Example 5, N-(2-((1R,4R)-2,5-diazabicyclo[2.2.1]heptan-2-yl)-5-fluorophenyl)-2-(2,3-difluoro-6-methoxyphenyl)-3-fluoroisonicotinamide] is below 100 nM; for `COc1cccc(Cl)c1-c1nccc(C(=O)Nc2cc(F)ccc2N2C[C@H]3C[C@@H]2CN3)c1F` [Example 6, N-(2-((1R,4R)-2,5-diazabicyclo[2.2.1]heptan-2-yl)-5-fluorophenyl)-2-(2-chloro-6-methoxyphenyl)-3-fluoroisonicotinamide] it is 100 to 1000 nM; for `COc1cccc(F)c1-c1nccc(C(=O)Nc2ccc3c(nc(C)n3C)c2C2C[C@H]3C[C@@H]2CN3)c1F` (stereo partly drawn) [Example 7, N-(4-((1S,4S)-2-azabicyclo[2.2.1]heptan-5-yl)-1,2-dimethyl-1H-benzo[d]imidazol-5-yl)-3-fluoro-2-(2-fluoro-6-methoxyphenyl)isonicotinamide] it is below 100 nM. The figure for `COc1cccc(F)c1-c1nccc(C(=O)Nc2ccc3c(nc(C)n3C)c2N2CCC(N)CC2)c1F` [Example 8, N-(4-(4-aminopiperidin-1-yl)-1,2-dimethyl-1H-benzo[d]imidazol-5-yl)-3-fluoro-2-(2-fluoro-6-methoxyphenyl)isonicotinamide] is below 100 nM.

Usually IC50 stands for the concentration that gives 50% inhibition. Read a low IC50 as inhibition by little substance.

The values are drawn from patent US20250122174A1 (Shenzhen Yuanli Shenwan Innovative Medicine Co., Ltd., priority 2022, published 2025).
